Measured values published in ChEMBL document CHEMBL3991601, “The target landscape of clinical kinase drugs” (Science, 2017).
Active and inactive are the calls of the source.

Experiments:
[1] = molecular target: Nucleoside diphosphate kinase B (Homo sapiens, UniProt P22392)
[2] = molecular target: Serine/threonine-protein kinase 38 (Homo sapiens, UniProt Q15208)
[3] = molecular target: Tyrosine-protein kinase JAK2 (Homo sapiens, UniProt O60674)
[4] = molecular target: Serine/threonine-protein kinase PLK1 (Homo sapiens, UniProt P53350)
[5] = molecular target: Dual specificity tyrosine-phosphorylation-regulated kinase 1B (Homo sapiens, UniProt Q9Y463)
[6] = molecular target: Tyrosine-protein kinase Fgr (Homo sapiens, UniProt P09769)
[7] = molecular target: Cyclin-dependent kinase 18 (Homo sapiens, UniProt Q07002)
[8] = molecular target: Activin receptor type-1-like (Homo sapiens, UniProt P37023)
[9] = molecular target: ALK tyrosine kinase receptor (Homo sapiens, UniProt Q9UM73); format: subcellular, K-562, COLO 205, SK-N-BE(2) and MV-4-11, Cell lysate; conditions: read-out: Kd apparent
[10] = molecular target: Putative nucleoside diphosphate kinase (Homo sapiens, UniProt O60361)
[11] = molecular target: Ras-related C3 botulinum toxin substrate 1 (Homo sapiens, UniProt P63000)
[12] = molecular target: T1, Uncharacterized protein FLJ45252 (Homo sapiens, UniProt Q6ZSR9)
T1 sequence (Q6ZSR9 whole entry): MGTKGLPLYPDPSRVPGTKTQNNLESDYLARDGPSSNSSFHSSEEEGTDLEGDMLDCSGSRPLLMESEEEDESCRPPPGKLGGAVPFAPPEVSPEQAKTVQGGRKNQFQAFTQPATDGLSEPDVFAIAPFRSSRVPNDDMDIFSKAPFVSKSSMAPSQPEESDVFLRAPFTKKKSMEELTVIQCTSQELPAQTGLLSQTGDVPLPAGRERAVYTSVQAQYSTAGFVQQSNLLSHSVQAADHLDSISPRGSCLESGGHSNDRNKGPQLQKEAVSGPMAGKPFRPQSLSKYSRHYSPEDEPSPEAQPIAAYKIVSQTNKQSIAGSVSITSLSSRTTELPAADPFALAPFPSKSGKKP

[13] = molecular target: 5'-AMP-activated protein kinase subunit gamma-1 (Homo sapiens, UniProt P54619)
[14] = molecular target: T2, General transcription and DNA repair factor IIH helicase subunit XPD (Homo sapiens, UniProt P18074)
T2 sequence (P18074 whole entry): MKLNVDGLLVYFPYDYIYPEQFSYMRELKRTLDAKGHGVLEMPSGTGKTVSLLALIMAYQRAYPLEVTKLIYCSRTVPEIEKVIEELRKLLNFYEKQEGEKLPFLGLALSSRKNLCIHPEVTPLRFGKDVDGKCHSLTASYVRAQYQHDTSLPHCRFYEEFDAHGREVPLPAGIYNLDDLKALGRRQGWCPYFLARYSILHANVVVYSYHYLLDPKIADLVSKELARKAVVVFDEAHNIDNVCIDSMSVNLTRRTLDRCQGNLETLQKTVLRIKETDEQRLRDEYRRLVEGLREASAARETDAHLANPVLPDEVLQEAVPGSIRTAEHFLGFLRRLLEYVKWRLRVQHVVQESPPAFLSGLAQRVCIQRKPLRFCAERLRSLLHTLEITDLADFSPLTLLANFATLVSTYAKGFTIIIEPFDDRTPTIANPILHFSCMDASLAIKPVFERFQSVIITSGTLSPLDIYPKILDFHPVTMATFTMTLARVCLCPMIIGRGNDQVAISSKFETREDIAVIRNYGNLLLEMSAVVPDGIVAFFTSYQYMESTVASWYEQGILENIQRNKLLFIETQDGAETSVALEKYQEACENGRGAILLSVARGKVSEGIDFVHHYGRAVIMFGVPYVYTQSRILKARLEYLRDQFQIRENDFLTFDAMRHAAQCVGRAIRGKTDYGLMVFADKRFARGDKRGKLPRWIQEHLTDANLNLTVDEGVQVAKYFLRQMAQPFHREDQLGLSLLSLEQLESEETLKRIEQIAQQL
Note: in the data inactive means no Kd found up to 30 µM.

ALK tyrosine kinase receptor, sequence (Q9UM73 whole entry): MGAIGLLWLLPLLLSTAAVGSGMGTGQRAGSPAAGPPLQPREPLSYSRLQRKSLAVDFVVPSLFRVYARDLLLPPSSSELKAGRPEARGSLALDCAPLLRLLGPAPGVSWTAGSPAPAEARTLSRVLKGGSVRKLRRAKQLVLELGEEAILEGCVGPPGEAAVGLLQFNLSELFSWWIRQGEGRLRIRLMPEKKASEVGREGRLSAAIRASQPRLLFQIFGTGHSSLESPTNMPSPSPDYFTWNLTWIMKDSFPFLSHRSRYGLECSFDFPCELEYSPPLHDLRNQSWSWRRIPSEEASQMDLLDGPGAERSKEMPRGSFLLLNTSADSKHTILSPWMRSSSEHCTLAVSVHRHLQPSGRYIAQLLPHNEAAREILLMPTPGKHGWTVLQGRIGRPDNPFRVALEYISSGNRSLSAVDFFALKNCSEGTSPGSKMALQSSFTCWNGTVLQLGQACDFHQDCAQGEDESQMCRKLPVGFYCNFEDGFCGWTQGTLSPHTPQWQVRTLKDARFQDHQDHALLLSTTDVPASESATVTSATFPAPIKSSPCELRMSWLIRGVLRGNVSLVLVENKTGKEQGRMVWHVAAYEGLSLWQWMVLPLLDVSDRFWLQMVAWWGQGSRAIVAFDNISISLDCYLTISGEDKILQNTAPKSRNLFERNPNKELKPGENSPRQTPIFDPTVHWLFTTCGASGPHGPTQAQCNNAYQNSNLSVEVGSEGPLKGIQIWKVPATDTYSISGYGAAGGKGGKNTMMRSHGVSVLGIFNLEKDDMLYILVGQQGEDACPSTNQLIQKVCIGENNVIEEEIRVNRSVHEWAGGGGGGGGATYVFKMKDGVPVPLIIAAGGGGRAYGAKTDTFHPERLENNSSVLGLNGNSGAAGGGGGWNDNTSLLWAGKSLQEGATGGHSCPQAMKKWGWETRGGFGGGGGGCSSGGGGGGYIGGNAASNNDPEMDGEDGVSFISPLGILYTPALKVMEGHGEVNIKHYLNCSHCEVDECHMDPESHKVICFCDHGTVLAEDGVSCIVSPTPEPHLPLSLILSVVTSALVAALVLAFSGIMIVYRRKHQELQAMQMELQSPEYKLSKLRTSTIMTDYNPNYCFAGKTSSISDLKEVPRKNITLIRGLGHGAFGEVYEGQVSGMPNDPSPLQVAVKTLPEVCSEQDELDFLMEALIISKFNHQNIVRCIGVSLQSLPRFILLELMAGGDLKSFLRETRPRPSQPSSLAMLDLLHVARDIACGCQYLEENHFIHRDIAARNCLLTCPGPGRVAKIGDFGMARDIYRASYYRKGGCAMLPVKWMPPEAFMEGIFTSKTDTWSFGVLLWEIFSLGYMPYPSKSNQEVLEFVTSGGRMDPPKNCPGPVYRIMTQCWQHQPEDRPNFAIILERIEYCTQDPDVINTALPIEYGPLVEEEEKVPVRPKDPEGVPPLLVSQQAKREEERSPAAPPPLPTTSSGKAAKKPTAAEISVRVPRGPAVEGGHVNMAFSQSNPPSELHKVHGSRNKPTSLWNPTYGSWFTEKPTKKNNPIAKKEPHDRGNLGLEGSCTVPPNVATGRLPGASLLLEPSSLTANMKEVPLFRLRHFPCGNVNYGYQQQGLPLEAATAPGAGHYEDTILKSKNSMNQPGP
Serine/threonine-protein kinase PLK1, sequence (P53350 whole entry): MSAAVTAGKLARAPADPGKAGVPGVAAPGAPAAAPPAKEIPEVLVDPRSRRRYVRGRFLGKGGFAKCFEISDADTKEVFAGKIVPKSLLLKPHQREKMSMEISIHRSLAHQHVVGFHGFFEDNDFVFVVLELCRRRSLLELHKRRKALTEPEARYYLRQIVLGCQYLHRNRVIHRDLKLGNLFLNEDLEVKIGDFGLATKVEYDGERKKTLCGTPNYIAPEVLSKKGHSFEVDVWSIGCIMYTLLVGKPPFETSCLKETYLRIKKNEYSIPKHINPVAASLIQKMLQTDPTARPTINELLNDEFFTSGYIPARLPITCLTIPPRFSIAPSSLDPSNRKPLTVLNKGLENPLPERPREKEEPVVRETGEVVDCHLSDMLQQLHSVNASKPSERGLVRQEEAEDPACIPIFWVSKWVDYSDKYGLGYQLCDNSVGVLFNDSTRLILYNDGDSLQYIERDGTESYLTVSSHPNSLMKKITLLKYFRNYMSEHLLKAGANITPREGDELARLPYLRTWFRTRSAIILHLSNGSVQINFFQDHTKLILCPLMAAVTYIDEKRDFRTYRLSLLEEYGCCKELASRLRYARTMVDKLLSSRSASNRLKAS
Activin receptor type-1-like, sequence (P37023 whole entry): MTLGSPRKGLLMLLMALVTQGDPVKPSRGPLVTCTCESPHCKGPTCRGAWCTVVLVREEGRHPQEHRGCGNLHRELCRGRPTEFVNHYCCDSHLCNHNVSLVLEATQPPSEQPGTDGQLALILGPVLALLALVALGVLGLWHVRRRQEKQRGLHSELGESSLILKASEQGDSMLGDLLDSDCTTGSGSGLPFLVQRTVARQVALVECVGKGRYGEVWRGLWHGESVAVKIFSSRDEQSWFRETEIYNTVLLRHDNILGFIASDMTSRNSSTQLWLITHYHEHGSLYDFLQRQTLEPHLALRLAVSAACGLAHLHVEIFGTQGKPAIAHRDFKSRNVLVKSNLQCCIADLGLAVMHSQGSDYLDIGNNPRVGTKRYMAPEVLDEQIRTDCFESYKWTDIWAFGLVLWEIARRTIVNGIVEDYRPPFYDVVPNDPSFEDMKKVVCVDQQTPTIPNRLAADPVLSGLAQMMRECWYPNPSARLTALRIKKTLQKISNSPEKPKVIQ
Serine/threonine-protein kinase 38, sequence (Q15208 whole entry): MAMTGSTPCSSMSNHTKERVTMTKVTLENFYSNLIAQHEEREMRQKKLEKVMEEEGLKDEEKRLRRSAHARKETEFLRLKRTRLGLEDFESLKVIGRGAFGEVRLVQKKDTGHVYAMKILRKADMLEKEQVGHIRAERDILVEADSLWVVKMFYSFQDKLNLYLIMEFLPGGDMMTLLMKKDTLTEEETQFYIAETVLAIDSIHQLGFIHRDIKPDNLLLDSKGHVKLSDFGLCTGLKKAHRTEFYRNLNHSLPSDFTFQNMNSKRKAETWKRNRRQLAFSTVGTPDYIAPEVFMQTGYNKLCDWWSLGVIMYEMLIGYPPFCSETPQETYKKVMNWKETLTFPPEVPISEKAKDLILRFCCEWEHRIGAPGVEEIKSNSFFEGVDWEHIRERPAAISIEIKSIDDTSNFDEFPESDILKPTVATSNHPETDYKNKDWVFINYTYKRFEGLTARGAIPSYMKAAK
Cyclin-dependent kinase 18, sequence (Q07002 whole entry): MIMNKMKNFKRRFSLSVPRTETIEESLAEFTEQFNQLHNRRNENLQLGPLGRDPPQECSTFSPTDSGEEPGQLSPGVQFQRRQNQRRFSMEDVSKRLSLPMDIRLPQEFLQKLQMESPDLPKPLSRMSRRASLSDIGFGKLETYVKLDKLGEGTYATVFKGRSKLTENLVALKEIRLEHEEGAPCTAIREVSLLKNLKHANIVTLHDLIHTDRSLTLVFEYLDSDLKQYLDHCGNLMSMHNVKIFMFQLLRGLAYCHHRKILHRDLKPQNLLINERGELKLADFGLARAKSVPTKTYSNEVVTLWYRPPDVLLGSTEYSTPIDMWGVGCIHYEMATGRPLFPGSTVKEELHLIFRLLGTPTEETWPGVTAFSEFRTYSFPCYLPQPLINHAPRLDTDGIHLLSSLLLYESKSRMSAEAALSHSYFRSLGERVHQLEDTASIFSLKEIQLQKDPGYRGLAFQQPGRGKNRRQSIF
Tyrosine-protein kinase Fgr, sequence (P09769 whole entry): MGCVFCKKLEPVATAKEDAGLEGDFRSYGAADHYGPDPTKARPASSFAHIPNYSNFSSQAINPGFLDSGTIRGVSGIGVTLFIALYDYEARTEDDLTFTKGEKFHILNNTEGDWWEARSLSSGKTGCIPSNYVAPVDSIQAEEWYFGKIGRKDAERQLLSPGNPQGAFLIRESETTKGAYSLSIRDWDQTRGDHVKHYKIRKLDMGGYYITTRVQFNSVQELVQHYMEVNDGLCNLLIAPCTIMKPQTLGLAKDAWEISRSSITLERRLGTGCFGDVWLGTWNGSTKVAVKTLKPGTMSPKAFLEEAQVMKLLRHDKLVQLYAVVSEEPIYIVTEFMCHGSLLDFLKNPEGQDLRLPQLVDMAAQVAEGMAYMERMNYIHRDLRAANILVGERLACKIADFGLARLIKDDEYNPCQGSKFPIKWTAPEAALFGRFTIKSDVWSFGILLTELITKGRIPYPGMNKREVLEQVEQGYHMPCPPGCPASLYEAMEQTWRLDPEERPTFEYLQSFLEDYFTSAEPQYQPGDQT
Dual specificity tyrosine-phosphorylation-regulated kinase 1B, sequence (Q9Y463 whole entry): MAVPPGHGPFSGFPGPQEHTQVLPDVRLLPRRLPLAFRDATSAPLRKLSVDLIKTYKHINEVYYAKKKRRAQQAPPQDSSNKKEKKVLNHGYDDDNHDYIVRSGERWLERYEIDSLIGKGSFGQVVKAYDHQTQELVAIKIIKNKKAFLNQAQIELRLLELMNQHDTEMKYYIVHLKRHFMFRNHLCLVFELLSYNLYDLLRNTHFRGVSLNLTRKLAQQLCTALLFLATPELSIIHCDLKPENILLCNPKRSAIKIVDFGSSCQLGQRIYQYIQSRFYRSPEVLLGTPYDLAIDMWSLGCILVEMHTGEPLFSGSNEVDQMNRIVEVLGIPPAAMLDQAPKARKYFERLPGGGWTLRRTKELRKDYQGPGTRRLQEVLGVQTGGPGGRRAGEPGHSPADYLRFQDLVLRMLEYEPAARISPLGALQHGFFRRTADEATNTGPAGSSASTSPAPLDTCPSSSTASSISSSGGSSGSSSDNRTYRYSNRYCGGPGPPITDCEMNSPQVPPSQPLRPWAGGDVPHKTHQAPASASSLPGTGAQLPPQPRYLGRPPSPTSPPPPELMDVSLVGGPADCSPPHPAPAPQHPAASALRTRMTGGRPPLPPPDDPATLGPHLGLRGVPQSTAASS
Nucleoside diphosphate kinase B, sequence (P22392 whole entry): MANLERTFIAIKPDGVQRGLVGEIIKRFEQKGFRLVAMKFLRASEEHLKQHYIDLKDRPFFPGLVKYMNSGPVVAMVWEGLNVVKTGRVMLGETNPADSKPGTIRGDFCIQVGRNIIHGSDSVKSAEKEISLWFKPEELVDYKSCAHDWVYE

Cn1c(=O)c(F)c(Nc2ccc(I)cc2F)c2c(=O)n(C[C@@H](O)CO)cnc21 [TAK-733]
Kd [1]: > 30 µM (inactive)
Kd [2]: > 30 µM (inactive)
Kd [3]: > 30 µM (inactive)

COc1cc2ncnc3c2cc1OCCCCCN(C)Cc1ccc(Br)cc1N3 [JNJ-26483327]
Kd [2]: > 30 µM (inactive)

C#Cc1cccc(Nc2ncnc3cc4c(cc23)OCCOCCOCCO4)c1 [ICOTINIB]
Kd [4]: > 30 µM (inactive)
Kd [5]: > 30 µM (inactive)
Kd [2]: > 30 µM (inactive)
Kd [6]: > 30 µM (inactive)
Kd [7]: > 30 µM (inactive)

Cc1cc(C(=O)Nc2cc(Oc3ccc4nc(NC(=O)C5CC5)cn4n3)ccc2C)n(C)n1 [TAK-593]
Kd [4]: > 30 µM (inactive)

C[C@]1(O)C[C@@H](c2nc(-c3ccc4ccc(-c5ccccc5)nc4c3)c3c(N)nccn32)C1 [LINSITINIB]
Kd [8]: > 30 µM (inactive)

COc1cc2ncnc(Nc3ccc(O)cc3)c2cc1OC [WHI-P131]
Kd [4]: > 30 µM (inactive)
Kd [9]: > 30 µM (inactive)
Kd [2]: > 30 µM (inactive)

O=C(O)c1ccc2c(c1)nc(Nc1cccc(Cl)c1)c1ccncc12 [SILMITASERTIB]
Kd [4]: 0.672 µM (active)

CN(c1ncccc1CNc1nc(Nc2ccc3c(c2)CC(=O)N3)ncc1C(F)(F)F)S(C)(=O)=O [PF-00562271]
Kd [1]: > 30 µM (inactive)
Kd [10]: 0.862 µM

O[C@H]1CC[C@H](Nc2ncc3nc(Nc4c(F)cc(F)cc4F)n([C@H]4CCOC4)c3n2)CC1 [TANZISERTIB]
Kd [9]: > 30 µM (inactive)
Kd [5]: > 30 µM (inactive)

Cn1c(=O)n(-c2ccc(C(C)(C)C#N)cc2)c2c3cc(-c4cnc5ccccc5c4)ccc3ncc21 [DACTOLISIB]
Kd [2]: > 30 µM (inactive)

S=C(NCc1ccc2c(c1)OCO2)N1CCN(c2ncnc3c2oc2ccccc23)CC1 [AMUVATINIB]
Kd [4]: > 30 µM (inactive)

CN1CCN(c2nc(C3=C(c4c[nH]c5ccccc45)C(=O)NC3=O)c3ccccc3n2)CC1 [SOTRASTAURIN]
Kd [9]: > 30 µM (inactive)
Kd [11]: > 30 µM (inactive)

CCOc1ccn(-c2ccc(F)cc2)c(=O)c1C(=O)Nc1ccc(Oc2ccnc(N)c2Cl)c(F)c1 [BMS-777607]
Kd [12]: > 30 µM (inactive)
Kd [13]: > 30 µM (inactive)
Kd [14]: > 30 µM (inactive)

CC1(COc2ccc3c(c2)ncn3-c2ccc3cccc(N4CCC(N)CC4)c3n2)COC1 [CRENOLANIB]
Kd [4]: > 30 µM (inactive)
Kd [3]: > 30 µM (inactive)

O=S(=O)(c1cccc2cnccc12)N1CCCNCC1 [FASUDIL]
Kd [6]: > 30 µM (inactive)
Kd [11]: > 30 µM (inactive)

CNC(=O)c1cc(COc2nnc(Nc3ccc(Cl)cc3)c3ccoc23)ccn1 [TELATINIB]
Kd [9]: > 30 µM (inactive)

COc1cc(F)c(F)c(Nc2ccc(I)cc2F)c1NS(=O)(=O)C1(C[C@H](O)CO)CC1 [REFAMETINIB]
Kd [2]: > 30 µM (inactive)
Kd [11]: > 30 µM (inactive)

CNC(=O)c1ccc(Nc2ncc(C(F)(F)F)c(NCc3nccnc3N(C)S(C)(=O)=O)n2)cc1 [DEFACTINIB]
Kd [5]: > 30 µM (inactive)
Kd [7]: > 30 µM (inactive)

Cc1ccc(C(=O)Nc2ccc(Oc3cc4cnn(C)c4cc3-c3cn[nH]c3)c(F)c2)c(=O)n1-c1ccc(F)cc1 [MERESTINIB]
Kd [4]: > 30 µM (inactive)

CC(C)(O)CC(=O)NCCn1ccc2ncnc(Nc3ccc(Oc4cccc(C(F)(F)F)c4)c(Cl)c3)c21 [TAK-285]
Kd [2]: > 30 µM (inactive)
Kd [7]: > 30 µM (inactive)

CNC(=O)c1cccc(-c2ccc3c(N4CCOC[C@@H]4C)nc(N4CCOC[C@@H]4C)nc3n2)c1 [VISTUSERTIB]
Kd [4]: > 30 µM (inactive)
Kd [5]: > 30 µM (inactive)
Kd [2]: > 30 µM (inactive)
Kd [6]: > 30 µM (inactive)
Kd [8]: > 30 µM (inactive)
Kd [3]: > 30 µM (inactive)

c1cc(OCCN2CCCCC2)cc(-c2n[nH]c3ccc(-c4nc[nH]n4)cc23)c1 [CC-401]
Kd [7]: > 30 µM (inactive)

COc1cc(Nc2ncc(F)c(Nc3ccc4c(n3)N(COP(=O)(O)O)C(=O)C(C)(C)O4)n2)cc(OC)c1OC [FOSTAMATINIB]
Kd [4]: > 30 µM (inactive)
Kd [5]: > 30 µM (inactive)
Kd [3]: > 30 µM (inactive)

COc1ccc2c(OCc3nnc4ccc(-c5ccccc5)nn34)ccnc2c1 [AMG-208]
Kd [5]: > 30 µM (inactive)
Kd [6]: > 30 µM (inactive)
Kd [8]: > 30 µM (inactive)
Kd [3]: > 30 µM (inactive)

CC(C)CC(=O)Nc1[nH]nc2c1CN(C(=O)C1CCN(C)CC1)C2(C)C [PHA-793887]
Kd [4]: > 30 µM (inactive)
Kd [6]: > 30 µM (inactive)

CC[C@@](C)(Nc1ccnc(-c2c[nH]c3ncccc23)n1)C(=O)NCC(F)(F)F [DECERNOTINIB]
Kd [2]: > 30 µM (inactive)

C=CCn1c(=O)c2cnc(Nc3ccc(N4CCN(C)CC4)cc3)nc2n1-c1cccc(C(C)(C)O)n1 [ADAVOSERTIB]
Kd [4]: > 30 µM (inactive)
Kd [2]: > 30 µM (inactive)
Kd [7]: > 30 µM (inactive)

O=c1[nH]c([C@@H]2CCCN2)nc2c1oc1ccc(Cl)cc12
Kd [2]: > 30 µM (inactive)

Cc1c(Cn2c(C)nc3c(C(=O)O)cc(N4CCOCC4)cc32)cccc1C(F)(F)F [GSK-2636771]
Kd [11]: > 30 µM (inactive)
Kd [7]: > 30 µM (inactive)

Cn1cc(-c2[nH]c3cc(NC(=O)[C@H](N)C4CCCCC4)cc4c3c2C=NNC4=O)cn1
Kd [4]: > 30 µM (inactive)
Kd [9]: > 30 µM (inactive)
Kd [6]: > 30 µM (inactive)

COCCN1CCN(Cc2ccc(-c3n[nH]c4c3C(=O)c3c(NC(=O)NN5CCOCC5)cccc3-4)cc2)CC1 [RGB-286638]
Kd [5]: > 30 µM (inactive)

CCc1nc(C(N)=O)c(Nc2ccc(N3CCC(N4CCN(C)CC4)CC3)c(OC)c2)nc1NC1CCOCC1 [GILTERITINIB]
Kd [2]: > 30 µM (inactive)
Kd [11]: > 30 µM (inactive)

O=C(NOC[C@H](O)CO)c1ccc(F)c(F)c1Nc1ccc(I)cc1F [MIRDAMETINIB]
Kd [4]: > 30 µM (inactive)
Kd [6]: > 30 µM (inactive)
Kd [8]: > 30 µM (inactive)
Kd [3]: > 30 µM (inactive)

O=C(NC[C@H](O)CO)c1ccncc1Nc1ccc(I)cc1F [PIMASERTIB]
Kd [4]: > 30 µM (inactive)
Kd [9]: > 30 µM (inactive)
Kd [6]: > 30 µM (inactive)
Kd [3]: > 30 µM (inactive)

Cc1cc(-c2cc(OC(=O)c3ccccc3)ccc2Cl)cc2nnc(Nc3ccc(OCCN4CCCC4)cc3)nc12 [TG100-801]
Kd [5]: > 30 µM (inactive)
Kd [3]: > 30 µM (inactive)

O=C(Nc1ccc(OC(F)(F)F)cc1)c1sccc1NCc1ccnc2ccccc12 [OSI-930]
Kd [4]: > 30 µM (inactive)
Kd [6]: > 30 µM (inactive)
Kd [7]: > 30 µM (inactive)

NC[C@@](O)(c1ccc(Cl)cc1)c1ccc(-c2cn[nH]c2)cc1 [AT-13148]
Kd [2]: > 30 µM (inactive)
Kd [6]: > 30 µM (inactive)
Kd [11]: > 30 µM (inactive)

COc1cc2nccc(Oc3ccc(NC(=O)C4(C(=O)Nc5ccc(F)cc5)CC4)cc3)c2cc1OC [CABOZANTINIB]
Kd [4]: > 30 µM (inactive)
Kd [9]: > 30 µM (inactive)
Kd [5]: > 30 µM (inactive)
Kd [3]: > 30 µM (inactive)

C[C@@H]1COC(Nc2ccc3ncnc(Nc4ccc(OCc5nccs5)c(Cl)c4)c3c2)=N1 [VARLITINIB]
Kd [9]: > 30 µM (inactive)
Kd [2]: > 30 µM (inactive)

Cc1c(NC(=O)OC[C@@H]2COCCN2)cn2ncnc(Nc3ccc4c(cnn4Cc4cccc(F)c4)c3)c12 [AC-480]
Kd [4]: > 30 µM (inactive)
Kd [8]: > 30 µM (inactive)

COc1ccc(-c2ccc3ncc4c(c3c2)n(-c2ccc(N3CCNCC3)c(C(F)(F)F)c2)c(=O)n4C)cn1 [BGT-226 FREE BASE]
Kd [4]: > 30 µM (inactive)
Kd [6]: > 30 µM (inactive)

Cc1cc(Nc2nc(N[C@@H](C)c3ncc(F)cn3)ncc2Cl)n[nH]1 [AZD-1480]
Kd [4]: > 30 µM (inactive)
Kd [3]: > 30 µM (inactive)

CCc1cc2c(cc1N1CCC(N3CCOCC3)CC1)C(C)(C)c1[nH]c3cc(C#N)ccc3c1C2=O [ALECTINIB]
Kd [4]: > 30 µM (inactive)
Kd [5]: > 30 µM (inactive)
Kd [6]: > 30 µM (inactive)
Kd [7]: > 30 µM (inactive)

O=S(=O)(c1cccc2c(O)nccc12)N1CCCNCC1 [HYDROXYFASUDIL]
Kd [3]: > 30 µM (inactive)
